How the values were obtained:
Type in all cases: cell-based
Serratia marcescens = assay: MIC against Gram-negative bacteria: Serratia marcescens
Method in brief: (§1)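 MIC = lowest concentration of recombinant protein showing no growth. Test proteins: purified human-derived EGF domain proteins, two-fold dilution series, three wells per concentration; inoculum 5×10^5 CFU/mL in LB; incubation 37° C with shaking at 175 rpm.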

Aeromonas hydrophila = assay: MIC against Gram-negative bacteria: Aeromonas hydrophila
Method in brief: as §1

Klebsiella pneumonia = assay: MIC against Gram-negative bacteria: Klebsiella pneumonia
Method in brief: as §1

E. coli DH5α = assay: Antibacterial activity: MIC and growth curve against E. coli DH5α in 96-well plate; conditions: minimal inhibitory concentration against E. coli DH5α; 96-well plate, 5×10^5 CFU/mL, 37° C., judged after 8 h
Method in brief: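 Log-phase bacteria (OD600 ~0.5) resuspended in LB at 5×10^5 CFU/mL, exposed to recombinant protein at 50, 25, 12.5 μg/mL final in triplicate, 37 °C shaking at 175 rpm. OD600 read every 30 min; MIC is lowest concentration showing no growth.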

Moraxella catarrhalis = assay: MIC against Gram-negative bacteria: Moraxella catarrhalis
Method in brief: as §1

Enterobacter cloacae = assay: MIC against Gram-negative bacteria: Enterobacter cloacae
Method in brief: as §1

Pseudomonas aeruginosa = assay: MIC against Gram-negative bacteria: Pseudomonas aeruginosa
Method in brief: as §1

E. coli BL21 = assay: MIC against Gram-negative bacteria: E. coli BL21
Method in brief: as §1

Citrobacter diversus = assay: MIC against Gram-negative bacteria: Citrobacter diversus
Method in brief: as §1

Proteus mirabilis = assay: MIC against Gram-negative bacteria: Proteus mirabilis
Method in brief: as §1

Proteus vulgaris = assay: MIC against Gram-negative bacteria: Proteus vulgaris
Method in brief: as §1

[1] = Serratia marcescens, 5×10^5 CFU/mL, 10 h cultivation at 37° C.
[2] = Aeromonas hydrophila, 5×10^5 CFU/mL, 10 h cultivation at 37° C.
[3] = Klebsiella pneumonia, 5×10^5 CFU/mL, 10 h cultivation at 37° C.
[4] = Moraxella catarrhalis, 5×10^5 CFU/mL, 10 h cultivation at 37° C.
[5] = Enterobacter cloacae, 5×10^5 CFU/mL, 10 h cultivation at 37° C.
[6] = Pseudomonas aeruginosa, 5×10^5 CFU/mL, 10 h cultivation at 37° C.
[7] = E. coli BL21, 5×10^5 CFU/mL, 10 h cultivation at 37° C.
[8] = Citrobacter diversus, 5×10^5 CFU/mL, 10 h cultivation at 37° C.
[9] = Proteus mirabilis, 5×10^5 CFU/mL, 10 h cultivation at 37° C.
[10] = Proteus vulgaris, 5×10^5 CFU/mL, 10 h cultivation at 37° C.
[11] = 10 h cultivation at 37° C., 5×10^5 CFU/mL, two-fold serial dilution
[12] = Serratia marcescens, 96-well plate, 5×10^5 CFU/mL, 37° C., 10 h
[13] = Aeromonas hydrophila, 96-well plate, 5×10^5 CFU/mL, 37° C., 10 h
[14] = Klebsiella pneumonia, 96-well plate, 5×10^5 CFU/mL, 37° C., 10 h
[15] = Moraxella catarrhalis, 96-well plate, 5×10^5 CFU/mL, 37° C., 10 h
[16] = Enterobacter cloacae, 96-well plate, 5×10^5 CFU/mL, 37° C., 10 h
[17] = Pseudomonas aeruginosa, 96-well plate, 5×10^5 CFU/mL, 37° C., 10 h
[18] = E. coli BL21, 96-well plate, 5×10^5 CFU/mL, 37° C., 10 h
[19] = Citrobacter diversus, 96-well plate, 5×10^5 CFU/mL, 37° C., 10 h
[20] = Proteus mirabilis, 96-well plate, 5×10^5 CFU/mL, 37° C., 10 h
[21] = Proteus vulgaris, 96-well plate, 5×10^5 CFU/mL, 37° C., 10 h
[22] = 96-well plate, 5×10^5 CFU/mL, 37° C., 10 h

## PRT1467 (QPQDCPPSTCLNGGTCHLGTRHHLACLCPEGFTGLYCE; listed as Homo sapiens)
Serratia marcescens; [1]
  MIC against S. marcescens: 12.5 µg/mL
Aeromonas hydrophila; [2]
  MIC against A. hydrophila: 25 µg/mL
Klebsiella pneumonia; [3]
  MIC against K. pneumonia: 12.5 µg/mL
E. coli DH5α
  MIC: 25 µg/mL
Moraxella catarrhalis; [4]
  MIC against M. catarrhalis: 25 µg/mL
Enterobacter cloacae; [5]
  MIC against E. cloacae: 50 µg/mL
Pseudomonas aeruginosa; [6]
  MIC against P. aeruginosa: 25 µg/mL
E. coli BL21; [7]
  MIC against E. coli BL21: 50 µg/mL
Citrobacter diversus; [8]
  MIC against C. diversus: 12.5 µg/mL
Proteus mirabilis; [9]
  MIC against P. mirabilis: 50 µg/mL
Proteus vulgaris; [10]
  MIC against P. vulgaris: 25 µg/mL

## PRT1140 (DVKDCLFLSCQDYGDCEDMVNNFRCICRPGFSGSLCE; listed as Homo sapiens)
Serratia marcescens; [11]
  MIC S. marcescens: 100 µg/mL
Aeromonas hydrophila; [11]
  MIC A. hydrophila: 50 µg/mL
Klebsiella pneumonia; [11]
  MIC K. pneumonia: 50 µg/mL
E. coli DH5α
  MIC: 25 µg/mL
Moraxella catarrhalis; [11]
  MIC M. catarrhalis: 50 µg/mL
Enterobacter cloacae; [11]
  MIC E. cloacae: 12.5 µg/mL
Pseudomonas aeruginosa; [11]
  MIC P. aeruginosa: 12.5 µg/mL
E. coli BL21; [11]
  MIC E. coli BL21: 50 µg/mL
Citrobacter diversus; [11]
  MIC C. diversus: 12.5 µg/mL
Proteus mirabilis; [11]
  MIC P. mirabilis: 12.5 µg/mL
Proteus vulgaris; [11]
  MIC P. vulgaris: 50 µg/mL

## PRT96 (AQRFCPDGSPSECHEHADCVLERDGSRSCVCAVGWAGNGILCG; listed as Homo sapiens)
Serratia marcescens; [12]
  MIC (μg/mL) S. marcescens: 12.5 µg/mL
Aeromonas hydrophila; [13]
  MIC (μg/mL) A. hydrophila: 12.5 µg/mL
Klebsiella pneumonia; [14]
  MIC (μg/mL) K. pneumonia: 12.5 µg/mL
E. coli DH5α
  MIC: 12.5 µg/mL
Moraxella catarrhalis; [15]
  MIC (μg/mL) M. catarrhalis: 12.5 µg/mL
Enterobacter cloacae; [16]
  MIC (μg/mL) E. cloacae: 12.5 µg/mL
Pseudomonas aeruginosa; [17]
  MIC (μg/mL) P. aeruginosa: 12.5 µg/mL
E. coli BL21; [18]
  MIC (μg/mL) E. coli BL21: 25 µg/mL
Citrobacter diversus; [19]
  MIC (μg/mL) C. diversus: 12.5 µg/mL
Proteus mirabilis; [20]
  MIC (μg/mL) P. mirabilis: 12.5 µg/mL
Proteus vulgaris; [21]
  MIC (μg/mL) P. vulgaris: 25 µg/mL

## PRT895 (NIDECAGNPCHNGGTCEDGINGFTCRCPEGYHDPTCL; listed as Homo sapiens)
Serratia marcescens; S. marcescens, 10 h cultivation at 37° C.
  MIC: 25 µg/mL
Aeromonas hydrophila; A. hydrophila, 10 h cultivation at 37° C.
  MIC: 50 µg/mL
Klebsiella pneumonia; K. pneumonia, 10 h cultivation at 37° C.
  MIC: 50 µg/mL
E. coli DH5α
  MIC: 50 µg/mL
Moraxella catarrhalis; M. catarrhalis, 10 h cultivation at 37° C.
  MIC: 50 µg/mL
Enterobacter cloacae; E. cloacae, 10 h cultivation at 37° C.
  MIC: 12.5 µg/mL
Pseudomonas aeruginosa; P. aeruginosa, 10 h cultivation at 37° C.
  MIC: 12.5 µg/mL
E. coli BL21; E. coli BL21, 10 h cultivation at 37° C.
  MIC: 25 µg/mL
Citrobacter diversus; C. diversus, 10 h cultivation at 37° C.
  MIC: 12.5 µg/mL
Proteus mirabilis; P. mirabilis, 10 h cultivation at 37° C.
  MIC: 12.5 µg/mL
Proteus vulgaris; P. vulgaris, 10 h cultivation at 37° C.
  MIC: 25 µg/mL

## PRT1235 (IGPQCEEMCNGQGSCINGTKCICDPGYSGPTCK; listed as Homo sapiens)
Serratia marcescens; [12]
  MIC against S. marcescens: 12.5 µg/mL
Aeromonas hydrophila; [13]
  MIC against A. hydrophila: 12.5 µg/mL
Klebsiella pneumonia; [14]
  MIC against K. pneumonia: 12.5 µg/mL
E. coli DH5α
  MIC: 12.5 µg/mL
Moraxella catarrhalis; [15]
  MIC against M. catarrhalis: 12.5 µg/mL
Enterobacter cloacae; [16]
  MIC against E. cloacae: 25 µg/mL
Pseudomonas aeruginosa; [17]
  MIC against P. aeruginosa: 25 µg/mL
E. coli BL21; [18]
  MIC against E. coli BL21: 12.5 µg/mL
Citrobacter diversus; [19]
  MIC against C. diversus: 12.5 µg/mL
Proteus mirabilis; [20]
  MIC against P. mirabilis: 12.5 µg/mL
Proteus vulgaris; [21]
  MIC against P. vulgaris: 50 µg/mL

## PRT1437 (DVNECADGAHPPCHASARCRNTKGGFQCLCADPYELGDDGRTCV; listed as Homo sapiens)
Serratia marcescens; [1]
  MIC against S. marcescens: 50 µg/mL
Aeromonas hydrophila; [2]
  MIC against A. hydrophila: 12.5 µg/mL
Klebsiella pneumonia; [3]
  MIC against K. pneumonia: 12.5 µg/mL
E. coli DH5α
  MIC: 12.5 µg/mL
Moraxella catarrhalis; [4]
  MIC against M. catarrhalis: 12.5 µg/mL
Enterobacter cloacae; [5]
  MIC against E. cloacae: 12.5 µg/mL
Pseudomonas aeruginosa; [6]
  MIC against P. aeruginosa: 12.5 µg/mL
E. coli BL21; [7]
  MIC against E. coli BL21: 25 µg/mL
Citrobacter diversus; [8]
  MIC against C. diversus: 12.5 µg/mL
Proteus mirabilis; [9]
  MIC against P. mirabilis: 25 µg/mL
Proteus vulgaris; [10]
  MIC against P. vulgaris: 12.5 µg/mL

## PRT1334 (PINPCLRKICHPHAHCTYLGPNRHSCTCQEGYRGDGQVCL; listed as Homo sapiens)
Serratia marcescens; [12]
  MIC against S. marcescens: 25 µg/mL
Aeromonas hydrophila; [13]
  MIC against A. hydrophila: 12.5 µg/mL
Klebsiella pneumonia; [14]
  MIC against K. pneumonia: 12.5 µg/mL
E. coli DH5α
  MIC: 12.5 µg/mL
Moraxella catarrhalis; [15]
  MIC against M. catarrhalis: 25 µg/mL
Enterobacter cloacae; [16]
  MIC against E. cloacae: 50 µg/mL
Pseudomonas aeruginosa; [17]
  MIC against P. aeruginosa: 50 µg/mL
E. coli BL21; [18]
  MIC against E. coli BL21: 12.5 µg/mL
Citrobacter diversus; [19]
  MIC against C. diversus: 50 µg/mL
Proteus mirabilis; [20]
  MIC against P. mirabilis: 100 µg/mL
Proteus vulgaris; [21]
  MIC against P. vulgaris: 25 µg/mL

## PRT464 (DLDECRVRNLCQHACRNTEGSYQCLCPAGYRLLPSGKNCQ; listed as Homo sapiens)
Serratia marcescens; [22]
  MIC against S. marcescens: 12.5 µg/mL
Aeromonas hydrophila; [22]
  MIC against A. hydrophila: 25 µg/mL
Klebsiella pneumonia; [22]
  MIC against K. pneumonia: 50 µg/mL
E. coli DH5α
  MIC: 12.5 µg/mL
Moraxella catarrhalis; [22]
  MIC against M. catarrhalis: 25 µg/mL
Enterobacter cloacae; [22]
  MIC against E. cloacae: 12.5 µg/mL
Pseudomonas aeruginosa; [22]
  MIC against P. aeruginosa: 12.5 µg/mL
E. coli BL21; [22]
  MIC against E. coli BL21: 50 µg/mL
Citrobacter diversus; [22]
  MIC against C. diversus: 50 µg/mL
Proteus mirabilis; [22]
  MIC against P. mirabilis: 12.5 µg/mL
Proteus vulgaris; [22]
  MIC against P. vulgaris: 50 µg/mL

## PRT693 (SSGMCQRNPQVCGPGRCISRPSGYTCACDSGFRLSPQGTRCI; listed as Homo sapiens)
Serratia marcescens; [22]
  MIC S. marcescens: 50 µg/mL
Aeromonas hydrophila; [22]
  MIC A. hydrophila: 25 µg/mL
Klebsiella pneumonia; [22]
  MIC K. pneumonia: 25 µg/mL
E. coli DH5α
  MIC: 25 µg/mL
Moraxella catarrhalis; [22]
  MIC M. catarrhalis: 12.5 µg/mL
Enterobacter cloacae; [22]
  MIC E. cloacae: 12.5 µg/mL
Pseudomonas aeruginosa; [22]
  MIC P. aeruginosa: 50 µg/mL
E. coli BL21; [22]
  MIC E. coli BL21: 12.5 µg/mL
Citrobacter diversus; [22]
  MIC C. diversus: 50 µg/mL
Proteus mirabilis; [22]
  MIC P. mirabilis: 25 µg/mL
Proteus vulgaris; [22]
  MIC P. vulgaris: 50 µg/mL

## PRT1239 (TIPICEGPDACQKDEVCVKPGLCRCKPGFFGAHCS; listed as Homo sapiens)
Serratia marcescens; [12]
  MIC against S. marcescens: 25 µg/mL
Aeromonas hydrophila; [13]
  MIC against A. hydrophila: 12.5 µg/mL
Klebsiella pneumonia; [14]
  MIC against K. pneumonia: 12.5 µg/mL
E. coli DH5α
  MIC: 25 µg/mL
Moraxella catarrhalis; [15]
  MIC against M. catarrhalis: 12.5 µg/mL
Enterobacter cloacae; [16]
  MIC against E. cloacae: 50 µg/mL
Pseudomonas aeruginosa; [17]
  MIC against P. aeruginosa: 50 µg/mL
E. coli BL21; [18]
  MIC against E. coli BL21: 12.5 µg/mL
Citrobacter diversus; [19]
  MIC against C. diversus: 50 µg/mL
Proteus mirabilis; [20]
  MIC against P. mirabilis: 25 µg/mL
Proteus vulgaris; [21]
  MIC against P. vulgaris: 50 µg/mL

## PRT1094 (GDNSCKSNPCHNGGVCHSRWDDFSCSCPALTSGKACE; listed as Homo sapiens)
Serratia marcescens; [11]
  MIC S. marcescens: 12.5 µg/mL
Aeromonas hydrophila; [11]
  MIC A. hydrophila: 50 µg/mL
Klebsiella pneumonia; [11]
  MIC K. pneumonia: 12.5 µg/mL
E. coli DH5α
  MIC: 25 µg/mL
Moraxella catarrhalis; [11]
  MIC M. catarrhalis: 50 µg/mL
Enterobacter cloacae; [11]
  MIC E. cloacae: 25 µg/mL
Pseudomonas aeruginosa; [11]
  MIC P. aeruginosa: 25 µg/mL
E. coli BL21; [11]
  MIC E. coli BL21: 50 µg/mL
Citrobacter diversus; [11]
  MIC C. diversus: 12.5 µg/mL
Proteus mirabilis; [11]
  MIC P. mirabilis: 12.5 µg/mL
Proteus vulgaris; [11]
  MIC P. vulgaris: 50 µg/mL

Source: patent US9833497B2, “Human originated EGF domain proteins and use of the same” (CHENGDU SOURCEBIO LIMITED-LIABILITY COMPANY, priority 2013, dated 2017)
